Measured values from PubChem BioAssay AID1845212 (Molecular Pharmacology Branch, DTP, NCI, 2023).
The source made the active and inactive calls. The calls were made as follows: active = viability on the fitted dose curve at most 10% of control; inactive = the rest.

System: NCI-H719 tumor spheroids, viability
Assay: Anticancer human tumor NCI-H719 cell line growth inhibition;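 as to viability, T/C: spheroids exposed to compounds for seven days; percent viability relative to DMSO vehicle control as 100%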
Conditions: second compound 10 µM; first compound 0.0316 µM; hits give low values; spheroids with HUVEC and MSC
Procedure, shortened: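 Complex spheroids of malignant cells with endothelial cells and mesenchymal stem cells; agents alone or combined, from near clinical Cmax (or 10 microM if unknown) down in half-log steps, 0.25% DMSO final.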

How did the viability, T/C turn out when `COc1ccc([C@@H](O)c2cc(-c3ncnc4cc(N5CCOCC5)ccc34)c(F)cc2Cl)nn1` + Cn1nnc2c(C(N)=O)ncn2c1=O was run?
The viability, T/C was 99.2%.

Which viability, T/C does the source give for `Cc1cc(C)c(CNC(=O)c2cc(-c3ccc(CN4CCOCC4)cc3)cc3c2cnn3C2CCCC2)c(=O)[nH]1` + Cn1nnc2c(C(N)=O)ncn2c1=O here?
Its viability, T/C is 105%.

How did the viability, T/C turn out when `[2H]c1nc(C)nc([2H])c1-c1cc(NC[C@@H](C)c2cccc3c(C(=O)NC)ccnc23)ncn1` + Cn1nnc2c(C(N)=O)ncn2c1=O was run?
Its viability, T/C is 103%.

Same assay, conditions: second compound 10 µM; first compound 0.1 µM; hits give low values; spheroids with HUVEC and MSC

How did the viability, T/C turn out when `CC(C)n1c(=O)n(C)c2cnc3cc(F)c(-c4ccc(OCCCN5CCCCC5)nc4)cc3c21` + Cn1nnc2c(C(N)=O)ncn2c1=O was run?
The viability, T/C was 104%.

Which viability, T/C does the source give for `CC1COCCN1c1cc(-c2ccnn2C)c2ccnc(-c3ccn[nH]3)c2n1` (configuration not stated) + Cn1nnc2c(C(N)=O)ncn2c1=O here?
The viability, T/C was 41%.

Which viability, T/C does the source give for `COc1cc(C)[nH]c(=O)c1CN1CCc2c(Cl)cc(C(OC)C3COC3)c(Cl)c2C1=O` (configuration not stated) + Cn1nnc2c(C(N)=O)ncn2c1=O here?
Its viability, T/C is 110%.

How did the viability, T/C turn out when `COc1ccc([C@@H](O)c2cc(-c3ncnc4cc(N5CCOCC5)ccc34)c(F)cc2Cl)nn1` + Cn1nnc2c(C(N)=O)ncn2c1=O was run?
The viability, T/C was 94.1%.

With `[2H]c1nc(C)nc([2H])c1-c1cc(NC[C@@H](C)c2cccc3c(C(=O)NC)ccnc23)ncn1` + Cn1nnc2c(C(N)=O)ncn2c1=O as the compound, how does the viability, T/C read?
The viability, T/C was 97%.

Same assay, conditions: second compound 10 µM; first compound 0.1 µM; spheroids with HUVEC and MSC

For `Cc1cc(C)c(CNC(=O)c2cc(-c3ccc(CN4CCOCC4)cc3)cc3c2cnn3C2CCCC2)c(=O)[nH]1` + Cn1nnc2c(C(N)=O)ncn2c1=O, which outcome is on record?
Its outcome is “inactive”.

Same assay, conditions: second compound 10 µM; first compound 0.316 µM; hits give low values; spheroids with HUVEC and MSC

`CC(C)n1c(=O)n(C)c2cnc3cc(F)c(-c4ccc(OCCCN5CCCCC5)nc4)cc3c21` + Cn1nnc2c(C(N)=O)ncn2c1=O was tested. Which viability, T/C did it give?
The viability, T/C was 103%.

`CC1COCCN1c1cc(-c2ccnn2C)c2ccnc(-c3ccn[nH]3)c2n1` (configuration not stated) + Cn1nnc2c(C(N)=O)ncn2c1=O was tested. Which viability, T/C did it give?
Its viability, T/C is 23.3%.

For `COc1cc(C)[nH]c(=O)c1CN1CCc2c(Cl)cc(C(OC)C3COC3)c(Cl)c2C1=O` (configuration not stated) + Cn1nnc2c(C(N)=O)ncn2c1=O, which viability, T/C is on record?
Its viability, T/C is 122%.

With `COc1ccc([C@@H](O)c2cc(-c3ncnc4cc(N5CCOCC5)ccc34)c(F)cc2Cl)nn1` + Cn1nnc2c(C(N)=O)ncn2c1=O as the compound, how does the viability, T/C read?
Its viability, T/C is 65.6%.

`Cc1cc(C)c(CNC(=O)c2cc(-c3ccc(CN4CCOCC4)cc3)cc3c2cnn3C2CCCC2)c(=O)[nH]1` + Cn1nnc2c(C(N)=O)ncn2c1=O was tested. Which viability, T/C did it give?
The viability, T/C was 108%.

With `[2H]c1nc(C)nc([2H])c1-c1cc(NC[C@@H](C)c2cccc3c(C(=O)NC)ccnc23)ncn1` + Cn1nnc2c(C(N)=O)ncn2c1=O as the compound, how does the viability, T/C read?
The viability, T/C was 90.4%.

Same assay, conditions: second compound 10 µM; first compound 1 µM; hits give low values; spheroids with HUVEC and MSC

Which viability, T/C does the source give for `CC(C)n1c(=O)n(C)c2cnc3cc(F)c(-c4ccc(OCCCN5CCCCC5)nc4)cc3c21` + Cn1nnc2c(C(N)=O)ncn2c1=O here?
Its viability, T/C is 89.2%.

`CC1COCCN1c1cc(-c2ccnn2C)c2ccnc(-c3ccn[nH]3)c2n1` (configuration not stated) + Cn1nnc2c(C(N)=O)ncn2c1=O was tested. Which viability, T/C did it give?
The viability, T/C was 9.97%.

How did the viability, T/C turn out when `COc1cc(C)[nH]c(=O)c1CN1CCc2c(Cl)cc(C(OC)C3COC3)c(Cl)c2C1=O` (configuration not stated) + Cn1nnc2c(C(N)=O)ncn2c1=O was run?
Its viability, T/C is 121%.

For `COc1ccc([C@@H](O)c2cc(-c3ncnc4cc(N5CCOCC5)ccc34)c(F)cc2Cl)nn1` + Cn1nnc2c(C(N)=O)ncn2c1=O, which viability, T/C is on record?
Its viability, T/C is 50.8%.

For `Cc1cc(C)c(CNC(=O)c2cc(-c3ccc(CN4CCOCC4)cc3)cc3c2cnn3C2CCCC2)c(=O)[nH]1` + Cn1nnc2c(C(N)=O)ncn2c1=O, which viability, T/C is on record?
Its viability, T/C is 110%.

How did the viability, T/C turn out when `[2H]c1nc(C)nc([2H])c1-c1cc(NC[C@@H](C)c2cccc3c(C(=O)NC)ccnc23)ncn1` + Cn1nnc2c(C(N)=O)ncn2c1=O was run?
Its viability, T/C is 96.8%.

Same assay, conditions: second compound 10 µM; first compound 3.16 µM; hits give low values; spheroids with HUVEC and MSC

With `CC(C)n1c(=O)n(C)c2cnc3cc(F)c(-c4ccc(OCCCN5CCCCC5)nc4)cc3c21` + Cn1nnc2c(C(N)=O)ncn2c1=O as the compound, how does the viability, T/C read?
The viability, T/C was 141%.

With `CC1COCCN1c1cc(-c2ccnn2C)c2ccnc(-c3ccn[nH]3)c2n1` (configuration not stated) + Cn1nnc2c(C(N)=O)ncn2c1=O as the compound, how does the viability, T/C read?
Its viability, T/C is 7.59%.

With `COc1cc(C)[nH]c(=O)c1CN1CCc2c(Cl)cc(C(OC)C3COC3)c(Cl)c2C1=O` (configuration not stated) + Cn1nnc2c(C(N)=O)ncn2c1=O as the compound, how does the viability, T/C read?
The viability, T/C was 125%.

With `COc1ccc([C@@H](O)c2cc(-c3ncnc4cc(N5CCOCC5)ccc34)c(F)cc2Cl)nn1` + Cn1nnc2c(C(N)=O)ncn2c1=O as the compound, how does the viability, T/C read?
Its viability, T/C is 48.9%.

How did the viability, T/C turn out when `Cc1cc(C)c(CNC(=O)c2cc(-c3ccc(CN4CCOCC4)cc3)cc3c2cnn3C2CCCC2)c(=O)[nH]1` + Cn1nnc2c(C(N)=O)ncn2c1=O was run?
Its viability, T/C is 94.3%.

With `[2H]c1nc(C)nc([2H])c1-c1cc(NC[C@@H](C)c2cccc3c(C(=O)NC)ccnc23)ncn1` + Cn1nnc2c(C(N)=O)ncn2c1=O as the compound, how does the viability, T/C read?
Its viability, T/C is 89.8%.

Same assay, conditions: second compound 10 µM; first compound 10 µM; hits give low values; spheroids with HUVEC and MSC

For `CC(C)n1c(=O)n(C)c2cnc3cc(F)c(-c4ccc(OCCCN5CCCCC5)nc4)cc3c21` + Cn1nnc2c(C(N)=O)ncn2c1=O, which viability, T/C is on record?
Its viability, T/C is 112%.

How did the viability, T/C turn out when `CC1COCCN1c1cc(-c2ccnn2C)c2ccnc(-c3ccn[nH]3)c2n1` (configuration not stated) + Cn1nnc2c(C(N)=O)ncn2c1=O was run?
Its viability, T/C is 8.83%.

For `COc1cc(C)[nH]c(=O)c1CN1CCc2c(Cl)cc(C(OC)C3COC3)c(Cl)c2C1=O` (configuration not stated) + Cn1nnc2c(C(N)=O)ncn2c1=O, which viability, T/C is on record?
Its viability, T/C is 118%.

How did the viability, T/C turn out when `COc1ccc([C@@H](O)c2cc(-c3ncnc4cc(N5CCOCC5)ccc34)c(F)cc2Cl)nn1` + Cn1nnc2c(C(N)=O)ncn2c1=O was run?
The viability, T/C was 33.8%.

For `Cc1cc(C)c(CNC(=O)c2cc(-c3ccc(CN4CCOCC4)cc3)cc3c2cnn3C2CCCC2)c(=O)[nH]1` + Cn1nnc2c(C(N)=O)ncn2c1=O, which viability, T/C is on record?
The viability, T/C was 94.5%.

With `[2H]c1nc(C)nc([2H])c1-c1cc(NC[C@@H](C)c2cccc3c(C(=O)NC)ccnc23)ncn1` + Cn1nnc2c(C(N)=O)ncn2c1=O as the compound, how does the viability, T/C read?
The viability, T/C was 94.2%.

Same assay, conditions: second compound 31.6 µM; first compound 0.0316 µM; hits give low values; spheroids with HUVEC and MSC

How did the viability, T/C turn out when `CC(C)n1c(=O)n(C)c2cnc3cc(F)c(-c4ccc(OCCCN5CCCCC5)nc4)cc3c21` + Cn1nnc2c(C(N)=O)ncn2c1=O was run?
The viability, T/C was 119%.

Which viability, T/C does the source give for `CC1COCCN1c1cc(-c2ccnn2C)c2ccnc(-c3ccn[nH]3)c2n1` (configuration not stated) + Cn1nnc2c(C(N)=O)ncn2c1=O here?
The viability, T/C was 54.5%.

With `COc1cc(C)[nH]c(=O)c1CN1CCc2c(Cl)cc(C(OC)C3COC3)c(Cl)c2C1=O` (configuration not stated) + Cn1nnc2c(C(N)=O)ncn2c1=O as the compound, how does the viability, T/C read?
The viability, T/C was 118%.

For `COc1ccc([C@@H](O)c2cc(-c3ncnc4cc(N5CCOCC5)ccc34)c(F)cc2Cl)nn1` + Cn1nnc2c(C(N)=O)ncn2c1=O, which viability, T/C is on record?
The viability, T/C was 99.3%.

With `Cc1cc(C)c(CNC(=O)c2cc(-c3ccc(CN4CCOCC4)cc3)cc3c2cnn3C2CCCC2)c(=O)[nH]1` + Cn1nnc2c(C(N)=O)ncn2c1=O as the compound, how does the viability, T/C read?
Its viability, T/C is 113%.

For `[2H]c1nc(C)nc([2H])c1-c1cc(NC[C@@H](C)c2cccc3c(C(=O)NC)ccnc23)ncn1` + Cn1nnc2c(C(N)=O)ncn2c1=O, which viability, T/C is on record?
Its viability, T/C is 101%.

Same assay, conditions: second compound 31.6 µM; first compound 0.1 µM; hits give low values; spheroids with HUVEC and MSC

Which viability, T/C does the source give for `CC(C)n1c(=O)n(C)c2cnc3cc(F)c(-c4ccc(OCCCN5CCCCC5)nc4)cc3c21` + Cn1nnc2c(C(N)=O)ncn2c1=O here?
The viability, T/C was 118%.

How did the viability, T/C turn out when `CC1COCCN1c1cc(-c2ccnn2C)c2ccnc(-c3ccn[nH]3)c2n1` (configuration not stated) + Cn1nnc2c(C(N)=O)ncn2c1=O was run?
Its viability, T/C is 30.4%.

With `COc1cc(C)[nH]c(=O)c1CN1CCc2c(Cl)cc(C(OC)C3COC3)c(Cl)c2C1=O` (configuration not stated) + Cn1nnc2c(C(N)=O)ncn2c1=O as the compound, how does the viability, T/C read?
Its viability, T/C is 111%.

`COc1ccc([C@@H](O)c2cc(-c3ncnc4cc(N5CCOCC5)ccc34)c(F)cc2Cl)nn1` + Cn1nnc2c(C(N)=O)ncn2c1=O was tested. Which viability, T/C did it give?
The viability, T/C was 101%.

With `Cc1cc(C)c(CNC(=O)c2cc(-c3ccc(CN4CCOCC4)cc3)cc3c2cnn3C2CCCC2)c(=O)[nH]1` + Cn1nnc2c(C(N)=O)ncn2c1=O as the compound, how does the viability, T/C read?
Its viability, T/C is 119%.

For `[2H]c1nc(C)nc([2H])c1-c1cc(NC[C@@H](C)c2cccc3c(C(=O)NC)ccnc23)ncn1` + Cn1nnc2c(C(N)=O)ncn2c1=O, which viability, T/C is on record?
Its viability, T/C is 105%.

Same assay, conditions: second compound 31.6 µM; first compound 0.316 µM; hits give low values; spheroids with HUVEC and MSC

Which viability, T/C does the source give for `CC(C)n1c(=O)n(C)c2cnc3cc(F)c(-c4ccc(OCCCN5CCCCC5)nc4)cc3c21` + Cn1nnc2c(C(N)=O)ncn2c1=O here?
Its viability, T/C is 114%.

How did the viability, T/C turn out when `CC1COCCN1c1cc(-c2ccnn2C)c2ccnc(-c3ccn[nH]3)c2n1` (configuration not stated) + Cn1nnc2c(C(N)=O)ncn2c1=O was run?
The viability, T/C was 18.1%.

Which viability, T/C does the source give for `COc1cc(C)[nH]c(=O)c1CN1CCc2c(Cl)cc(C(OC)C3COC3)c(Cl)c2C1=O` (configuration not stated) + Cn1nnc2c(C(N)=O)ncn2c1=O here?
Its viability, T/C is 111%.

For `COc1ccc([C@@H](O)c2cc(-c3ncnc4cc(N5CCOCC5)ccc34)c(F)cc2Cl)nn1` + Cn1nnc2c(C(N)=O)ncn2c1=O, which viability, T/C is on record?
The viability, T/C was 68.1%.

With `Cc1cc(C)c(CNC(=O)c2cc(-c3ccc(CN4CCOCC4)cc3)cc3c2cnn3C2CCCC2)c(=O)[nH]1` + Cn1nnc2c(C(N)=O)ncn2c1=O as the compound, how does the viability, T/C read?
The viability, T/C was 123%.

`[2H]c1nc(C)nc([2H])c1-c1cc(NC[C@@H](C)c2cccc3c(C(=O)NC)ccnc23)ncn1` + Cn1nnc2c(C(N)=O)ncn2c1=O was tested. Which viability, T/C did it give?
The viability, T/C was 101%.

Same assay, conditions: second compound 31.6 µM; first compound 1 µM; hits give low values; spheroids with HUVEC and MSC

Which viability, T/C does the source give for `CC(C)n1c(=O)n(C)c2cnc3cc(F)c(-c4ccc(OCCCN5CCCCC5)nc4)cc3c21` + Cn1nnc2c(C(N)=O)ncn2c1=O here?
The viability, T/C was 97.2%.
